According to patent US20230167437A1, “COMPOSITIONS FOR TREATING CANCER WITH KRAS MUTATIONS AND USES THEREOF” (Aadigen, LLC, priority 2020, published 2023):

How the values were obtained:
Assay type in all cases: cell-based, human
KRAS 35G>A mutant G12D = assay: Indel frequencies at the endogenous target sequences (T7E1 / deep sequencing) after ADGN/Cas9 mRNA/gRNA transfection; details: for indel frequencies: deep sequencing, 72 hours after transfection, Cas9 mRNA 0.1 μg, gRNA 0.2 μg; for disruption of G12D mutant KRAS (FIG. 2A): G12D cancer cells vs wild type KRAS cells (HT29 or HS-68)
Experimental: (§1) Complex formation with mRNA:gRNA: ADGN peptide/mRNA/gRNA particles were prepared at a 20:1:1 molar ratio. ADGN/Cas9mRNA/sgRNA complexes were prepared at a 20/1/1 molar ratio with 0.5 μg mRNA: 1.5 μg sgRNA and 5% Glucose or DMEM (example for 96 well plates). […] Premixed Cas9 mRNA/gRNA were prepared in sterile water at room temperature in a glass vial (1-4 ml). ADGN-peptide solution was added dropwise (1 drop/sec) under magnetic agitation at 400 rpm to obtain a 1:2 ratio, and incubated for 30 min at room temperature or 37° C. Just before transfection, 150 μl Glucose or DMEM was added and the solution was mixed under magnetic agitation at 400 rpm for 1 minute. Then the solution was incubated for 5 min at 37° C. Then the complexes was ready for cell transfection or IV administration. Prior to IV administration, complexes were diluted in sucrose 5% solution.
(§2) Transfection protocol. The following protocols are reported for 24/48/96 well plate format transfection. Cells should be trypsinized and seeded a day prior transfection Cells were cultured in Dulbecco's Modified Eagle's Medium (DMEM), supplemented with 2 mM glutamine, 1% antibiotics (streptomycin 10,000 μg/mL, penicillin, 10,000 IU/mL) and 10% (w/v) foetal calf serum (FCS), at 37° C. in a humidified atmosphere containing 5% CO2. 96 well plates seeded with 50,000 cells, the day prior transfection, grown to 60-80% confluence and set up to be at around 70% confluence at the day of transfection. Before transfection, cells are washed twice with DMEM (without FBS and pen/strep) (100 μl/well). Cells were then overlaid with 25 μl of complex solution, mixed gently and incubated for 10 min at 37° C.+5% CO2. 50 μl of fresh DMEM (without FBS and Antibiotics) was added and cells were incubated for 2 h at 37° C.+5% CO2 (time of exposure can be adjusted based on sensitivity of the cells). 250 μL of DMEM (containing 10% FCS and 1% antibiotics) were then added without removing the overlay of ADGN peptide/mRNA complexes. Cells were returned to the incubator (37° C., 5% CO2) and analyzed 48 hours to 72 hours post transfection.
(§3) Nine different gRNAs targeting KRAS 35G>A mutant G12D (gRNA35A1, gRNA35A2, gRNA35A3, gRNA35A4, gRNA35A5, gRNA35A6; gRNA35A7, gRNA35A8, gRNA35A9) were evaluated on LS513, Panc1, PK-45H, and PK1 cancer cells harboring G12D KRAS mutation. Cas9 mRNA (0.1 μg) and gRNA (0.2 μg) were associated with ADGN-peptide at molar ratio 20/1 (peptide/nucleic acid). LS513, Panc1, PK-45H, PK1, HS-68 and HT-29 cells were cultured in 48 well plate format and treated with free mRNACas9-gRNA, or ADGN/mRNACas9:gRNA complex. Indel frequencies at the endogenous target sequences was evaluated 72 hours after transfection by either T7E1 method or deep sequencing. Cell proliferation was analyzed over a period of 5 days using CellTiter Glow kits on GlowMax (Promega).
(§4) In order to confirm the specificity of sgRNAs targeting G12V, G12C or G12D KRAS mutation, gRNA35T3 targeting G12V, gRNA34T6 targeting G12C, and gRNA35A5 targeting G12D were evaluated on a large panel of cancer cells harboring different KRAS mutations including SW403, SW480, PANC1, PK-45H, PK-1, MIA-PACA, H23, H358, HT-29, HS-68 and LS513. Cas9 mRNA (0.2 μg) and gRNA (0.4 μg) were associated with ADGN peptide at molar ratio 20/1 (peptide/nucleic acid). Cells were cultured in 48 well plate format and treated with free mRNACas9-gRNA, or ADGN/mRNACas9:gRNA complex. Indel frequencies at the endogenous target sequences was evaluated 72 hours after transfection by either T7E1 method and cell proliferation was analyzed over a period of 5 days using CellTiter Glow kits on GlowMax (Promega).

wild type KRAS = assay: as above; details: for indel frequencies: deep sequencing, 72 hours after transfection, Cas9 mRNA 0.1 μg, gRNA 0.2 μg
Experimental: as §1, §2
(§5) Nine different gRNAs targeting KRAS 35G>T mutant G12V (gRNA35T1, gRNA35T2, gRNA35T3, gRNA35T4, gRNA35T5, gRNA35T6, gRNA35T7, gRNA35T8 and gRNA35T9 (see FIG. 18)) were evaluated on SW403 and SW480 cancer cells harboring G12V KRAS mutation. Cas9 mRNA (0.15 μg) and gRNA (0.2 μg) were associated with ADGN-peptides as reported in experimental procedure. SW403, SW480 and HT-29 cells were cultured in 48 well plate format and treated with free mRNACas9-gRNA, or ADGN-100/mRNACas9:gRNA complex. Indel frequencies at the endogenous target sequences was evaluated 72 hours after transfection by either T7E1 method and by deep sequencing. Cell proliferation was analyzed over a period of 5 days using CellTiter Glow kits on GlowMax (Promega).
as §3

KRAS 34G>T mutant G12C = assay: as above; details: Mia-PACA, H23, H358 vs HT29 and PANC1 cells
Experimental: as §1, §2
Eight different gRNAs targeting KRAS 34G>T mutant G12C (gRNA34T1, gRNA34T2, gRNA34T3, gRNA34T4, gRNA34T5, gRNA34T6, gRNA34T7 and gRNA34T8) were evaluated on MIA-PACA, H23, H358, H29 and PANC1 cells. Cas9 mRNA (0.1 μg) and gRNA (0.2 μg) were associated with ADGN peptide at molar ratio 20/1 (peptide/nucleic acid). MIA-PACA, H23, H358, PANC1 and HT29 cells were cultured in 48 well plate format and treated with free mRNACas9-gRNA, or ADGN/mRNACas9:gRNA complex. Indel frequencies at the endogenous target sequences was evaluated 72 hours after transfection by either T7E1 method or deep sequencing. Cell proliferation was analyzed over a period of 5 days using CellTiter Glow kits on GlowMax (Promega).
as §4

[1] = system: PANC1, PK1, LS513 and PK-45H cells; assay: Cell proliferation over 5 days (CellTiter Glow); details: PANC1, PK1, LS513, PK-45H vs HT29 or HS-68 cells harboring KRAS WT
Experimental: as §2, §3

KRAS 35G>T mutant G12V = assay: Indel frequencies at the endogenous target sequences (T7E1 / deep sequencing) after ADGN/Cas9 mRNA/gRNA transfection; details: SW403, SW480 vs wild type KRAS HT29 cells; T7E1
Experimental: as §1, §2, §5, §4

Sequence | indel frequencies (KRAS 35G>A mutant G12D; LS513 cells) [%] | indel frequencies (KRAS 35G>A mutant G12D; PANC1 cells) [%] | indel frequencies (KRAS 35G>A mutant G12D; PK1 cells) [%] | indel frequencies (KRAS 35G>A mutant G12D; PK-45H cells) [%] | indel frequencies (wild type KRAS; HS68 cells (WT KRAS)) [%] | indel frequencies (wild type KRAS; HT-29 cells (WT KRAS)) [%] | indel editing and disruption of G12C mutant KRAS (FIG. 3A) (KRAS 34G>T mutant G12C) | effect on wild type KRAS cells (wild type KRAS; HT-29 and HS-68 cells) | inhibition of proliferation or survival (FIG. 2B) [1] | disruption of G12D mutant KRAS (FIG. 2A) (KRAS 35G>A mutant G12D) | indel editing and disruption of G12V mutant KRAS (FIG. 1A) (KRAS 35G>T mutant G12V)
AGC TGA TGG CGT AGG CAA (guide AGCTGATGGCGTAGGCAA; chemistry not given here) [gRNA35A3, sgRNA target KRAS G12D mutation (35G>A); PAM GAG] | 9 ± 1 | 7 ± 1 | 2 ± 0.5 | 4 ± 1 | 4 ± 1 | 1 ± 0.5 | – | – | – | – | –
AGC TTG TGG CGT AGG CAA (guide AGCTTGTGGCGTAGGCAA; chemistry not given here) [gRNA34T2, sgRNA target KRAS G12C mutation (34G>T); PAM GAG] | – | – | – | – | – | – | inefficient or less specific affecting wild type KRAS | – | – | – | –
CTT GTG GCG TAG GCA AGAGT (guide CTTGTGGCGTAGGCAAGAGT; sgRNA, chemical modifications not given here, further chemistry not given here) [gRNA34T8, sgRNA target KRAS G12C mutation (34G>T); PAM GCC] | – | – | – | – | – | – | inefficient or less specific affecting wild type KRAS | – | – | – | –
CTTGTGGTAGTTGGAGCTGA (guide CTTGTGGTAGTTGGAGCTGA; chemistry not given here) [gRNA35A1, sgRNA target KRAS G12D mutation (35G>A); PAM TGG] | 17 ± 2 | 32 ± 2 | 12 ± 1 | 15 ± 0.8 | 8 ± 1 | 10 ± 1 | – | also affected wild type KRAS cells | specifically inhibit proliferation or survival of PANC1, PK1, LS513 and PK-45H cells | – | –
GCT GAT GGC GTA GGC AA (guide GCTGATGGCGTAGGCAA; chemistry not given here) [gRNA35A9, sgRNA target KRAS G12D mutation (35G>A); PAM GAG] | 21 ± 3 | 25 ± 3 | 34 ± 1 | 18 ± 2 | 12 ± 1 | 17 ± 3 | – | – | – | induced efficient disruption of G12D mutant KRAS | –
GCT TGT GGC GTA GGC AA (guide GCTTGTGGCGTAGGCAA; sgRNA, chemical modifications not given here, further chemistry not given here) [gRNA34T7, sgRNA target KRAS G12C mutation (34G>T); PAM GAG] | – | – | – | – | – | – | inefficient or less specific affecting wild type KRAS | – | – | – | –
GGTAGTTGGAGCTGATGGCG (guide GGTAGTTGGAGCTGATGGCG; chemistry not given here) [gRNA35A2, sgRNA target KRAS G12D mutation (35G>A); PAM TAG] | 31 ± 2 | 58 ± 4 | 48 ± 2 | 52 ± 5 | 6 ± 2 | 2 ± 1 | – | – | specifically inhibit proliferation or survival of PANC1, PK1, LS513 and PK-45H cells | induced efficient disruption of G12D mutant KRAS | –
GGTAGTTGGAGCTTGTGGCG (guide GGTAGTTGGAGCTTGTGGCG; chemistry not given here) [gRNA34T4, sgRNA target KRAS G12C mutation (34G>T); PAM TAG] | – | – | – | – | – | – | inefficient or less specific affecting wild type KRAS | – | – | – | –
TGA TGG CGT AGG CAA GAGT (guide TGATGGCGTAGGCAAGAGT; chemistry not given here) [gRNA35A4, sgRNA target KRAS G12D mutation (35G>A); PAM GCC] | 5 ± 2 | 4 ± 1 | 9 ± 0.1 | 7 ± 2 | 5 ± 0.7 | 2 ± 1 | – | – | – | – | –
TTG TGG TAG TTG GAG CTG A (guide TTGTGGTAGTTGGAGCTGA; chemistry not given here) [gRNA35A8, sgRNA target KRAS G12D mutation (35G>A); PAM TGG] | 7 ± 1 | 9 ± 2 | 18 ± 1 | 11 ± 1 | 6 ± 0.1 | 2 ± 0.2 | – | – | – | – | –
TTG TGG TAG TTG GAG CTG T (guide TTGTGGTAGTTGGAGCTGT; chemistry not given here) [gRNA35T7, sgRNA target KRAS G12V mutation (c.35G>T); PAM TGG] | – | – | – | – | – | – | – | – | – | – | specifically induced indel editing and efficient disruption
